Assay results published in patent US20220054576A1, “PHARMACEUTICAL COMPOSITION COMPRISING EXTRACT FROM CAMELLIA JAPONICA AS ACTIVE INGREDIENT FOR PREVENTION AND TREATMENT OF VIRAL INFECTION” (HUSCION CO., LTD., priority 2019, published 2022).

Experiments:
FluA H1N1 PR8 = experiment: microbe, parasite or virus in culture; assay type: cell-based; details: Influenza A virus, 48 h; MDCK cells, CPE inhibition, 2 days; positive controls; read-out: Antiviral activity EC50 FluA H1N1 PR8
FluB Lee = experiment: Cytopathic effect (CPE) inhibition test, Flu B Lee; details: read-out: Antiviral activity EC50 FluB Lee, MDCK cells, 2 days, positive controls
FluA H3N2 HongKong = experiment: microbe, parasite or virus in culture; assay type: cell-based, influenza A virus; details: for EC50: Influenza A virus, H3N2, 48 h, MDCK cells, CPE inhibition, 2 days, positive controls, read-out: Antiviral activity EC50 FluA H3N2 HongKong
in vitro = details: dog

SMILES | EC50 (FluA H1N1 PR8) [µM] | EC50 (FluB Lee) [µM] | Selectivity index FluA H3N2 HongKong (FluA H3N2 HongKong) | EC50 (FluA H3N2 HongKong) [µM] | CC50 (in vitro) [µM]
NC12CC3CC(CC(C3)C1)C2 [AMT, amantadine] | > 100 | > 100 | >43.5 | 2.3 | > 100
NC(=O)c1ncn([C@@H]2O[C@H](CO)[C@@H](O)[C@H]2O)n1 [RBV, ribavirin] | 29.9 | 19.6 |  | 13.4 | 
